Laboratory results: ChEMBL document CHEMBL1127755, “Comparative molecular field analysis using GRID force-field and GOLPE variable selection methods in a study of inhibitors of glycogen phosphorylase b” (J Med Chem, 1994)

Target: Glycogen phosphorylase, muscle form (Oryctolagus cuniculus) (UniProt P00489)
Experiment: Tested for inhibition constant against glycogen phosphorylase b
Parameters: scale not given here

Chain of Glycogen phosphorylase, muscle form (Oryctolagus cuniculus) (P00489 whole entry, looked up): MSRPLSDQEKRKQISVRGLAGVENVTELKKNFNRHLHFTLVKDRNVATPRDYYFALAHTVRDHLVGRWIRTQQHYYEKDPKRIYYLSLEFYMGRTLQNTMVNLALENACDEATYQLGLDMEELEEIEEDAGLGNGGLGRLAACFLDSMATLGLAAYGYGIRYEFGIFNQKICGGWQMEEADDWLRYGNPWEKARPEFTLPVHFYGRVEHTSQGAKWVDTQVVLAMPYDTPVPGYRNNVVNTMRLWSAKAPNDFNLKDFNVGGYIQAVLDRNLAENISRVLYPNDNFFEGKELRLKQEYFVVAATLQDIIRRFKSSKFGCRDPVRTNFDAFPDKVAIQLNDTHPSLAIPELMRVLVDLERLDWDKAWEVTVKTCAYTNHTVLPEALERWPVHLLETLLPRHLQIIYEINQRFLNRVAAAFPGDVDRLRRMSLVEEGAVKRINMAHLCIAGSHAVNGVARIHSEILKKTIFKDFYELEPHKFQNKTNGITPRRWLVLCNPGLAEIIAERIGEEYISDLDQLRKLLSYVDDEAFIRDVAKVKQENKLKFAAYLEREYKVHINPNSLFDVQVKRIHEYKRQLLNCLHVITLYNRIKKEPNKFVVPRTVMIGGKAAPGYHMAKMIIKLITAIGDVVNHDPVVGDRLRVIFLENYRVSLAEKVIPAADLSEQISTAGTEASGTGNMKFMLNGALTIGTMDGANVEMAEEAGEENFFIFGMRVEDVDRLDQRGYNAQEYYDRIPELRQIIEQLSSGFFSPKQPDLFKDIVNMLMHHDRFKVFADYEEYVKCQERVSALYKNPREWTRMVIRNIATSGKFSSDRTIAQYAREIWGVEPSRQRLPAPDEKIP

Exp Inhib Constant	SMILES
3.09	OCC1OC(CO)C(O)C(O)C1O (stereo in doubt; 10)
1.31	CS(=O)(=O)OC[C@]1(O)O[C@@H](CO)[C@@H](O)[C@H](O)[C@@H]1O
-0.99	NC(=O)C1OC(CO)C(O)C(O)C1O (stereo in doubt; 20)
-1.61	NC(=O)[C@@H]1O[C@H](CO)[C@@H](O)[C@H](O)[C@H]1O
0.41	OCC1OC(CO)C(O)C(O)C1O (stereo in doubt; 9)
2.15	OCc1ccccc1O[C@H]1O[C@H](CO)[C@@H](O)[C@H](O)[C@H]1O
2.49	CO[C@H]1O[C@H](CO)[C@H](O)[C@H](O)[C@H]1O
0.96	OC[C@H]1O[C@@H](Oc2cc3ccccc3[nH]2)[C@H](O)[C@@H](O)[C@@H]1O
3.19	COC(=O)C1OC(CO)C(O)C(O)C1O (stereo in doubt; 31)
2.53	O=C(Nc1ccccc1)C1OC(CO)C(O)C(O)C1O (stereo not given)
3.6	NC(=O)[C@H]1O[C@H](CO)[C@@H](O)[C@H](O)[C@H]1O
0.92	COC(=O)C1OC(CO)C(O)C(O)C1O (stereo in doubt; 33)
2.72	[N-]=[N+]=NC[C@@H]1O[C@H](CO)[C@@H](O)[C@H](O)[C@H]1O
3.23	OCCO[C@@H]1O[C@H](CO)[C@@H](O)[C@H](O)[C@H]1O
0	OCC1OC(S)C(O)C(O)C1O (stereo not given)
0.69	O[C@@H]1[C@@H](O)[C@@H](O)O[C@H](CS)[C@H]1O
1.1	NNC(=O)[C@@H]1O[C@H](CO)[C@@H](O)[C@H](O)[C@H]1O (stereo in doubt; 25)
2.76	OC[C@@H]1O[C@@](O)(CO)[C@@H](O)[C@@H](O)[C@@H]1O

Exp Inhib Constant	SMILES
1.57	CS(=O)(=O)OCC1OC(CO)C(O)C(O)C1O (stereo not given)
3.11	[N-]=[N+]=NC[C@H]1O[C@H](CO)[C@@H](O)[C@H](O)[C@H]1O
2.03	N#CC[C@]1(O)O[C@H](CO)[C@@H](O)[C@H](O)[C@H]1O
3.54	NCC1OC(CO)C(O)C(O)C1O (stereo in doubt; 14)
2.82	NCC1OC(CO)C(O)C(O)C1O (stereo in doubt; 15)
2	[N-]=[N+]=NC[C@@]1(O)O[C@@H](CO)[C@@H](O)[C@H](O)[C@@H]1O
3.97	CC1OC(CO)C(O)C(O)C1O (stereo not given)
2.79	OC[C@H]1O[C@H](OCC2O[C@@H](O)[C@H](O)[C@@H](O)[C@@H]2O)[C@H](O)[C@@H](O)[C@H]1O (stereo not given in full)
-0.92	NNC(=O)[C@@H]1O[C@H](CO)[C@@H](O)[C@H](O)[C@H]1O (stereo in doubt; 35)
2.2	N#CC[C@@H]1O[C@H](CO)[C@@H](O)[C@H](O)[C@H]1O
1.5	NCCC1OC(CO)C(O)C(O)C1O (stereo not given)
3.21	CO[C@@H]1O[C@H](CO)[C@H](O)[C@H](O)[C@H]1O
-0.82	NC(=O)C1OC(CO)C(O)C(O)C1O (stereo in doubt; 27)
3.05	NC(=O)CS[C@H]1O[C@H](CO)[C@@H](O)[C@H](O)[C@H]1O
1.72	O=C(Nc1ccc(O)cc1)C1OC(CO)C(O)C(O)C1O (stereo not given)
-1.61	OCC1OC(F)C(F)C(O)C1O (stereo not given)
-3.22	O=C(CCl)N[C@H]1O[C@H](CO)[C@@H](O)[C@H](O)[C@H]1O
